Measurements taken from PubChem BioAssay (NCI).
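Following 48 hours of exposure in 96-well plates, responses at five concentrations were used to interpolate endpoints linearly. GI50 marks 50% less growth. The concentration for full growth arrest is given as TGI.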

Legend:
Test in all cases: NCI anticancer screen, dose series, 48 h
786-0 renal = system: 786-0 renal
A498 renal = system: A498 renal
A549 NSCLC = system: A549 NSCLC
ACHN renal = system: ACHN renal
BT-549 breast = system: BT-549 breast
CAKI-1 renal = system: CAKI-1 renal
CCRF-CEM leukemia = system: CCRF-CEM leukemia
COLO 205 colon = system: COLO 205 colon
DU-145 prostate = system: DU-145 prostate
EKVX NSCLC = system: EKVX NSCLC
HCC-2998 colon = system: HCC-2998 colon
HCT-116 colon = system: HCT-116 colon
HCT-15 colon = system: HCT-15 colon
HL-60(TB) leukemia = system: HL-60(TB) leukemia
HOP-62 NSCLC = system: HOP-62 NSCLC
HOP-92 NSCLC = system: HOP-92 NSCLC
HS 578T breast = system: HS 578T breast
HT29 colon = system: HT29 colon
IGROV1 ovarian = system: IGROV1 ovarian
K-562 leukemia = system: K-562 leukemia
KM12 colon = system: KM12 colon
LOX IMVI melanoma = system: LOX IMVI melanoma
M14 melanoma = system: M14 melanoma
MALME-3M melanoma = system: MALME-3M melanoma
MCF7 breast = system: MCF7 breast
MDA-MB-231 breast = system: MDA-MB-231 breast
MDA-MB-435 = system: MDA-MB-435
MOLT-4 leukemia = system: MOLT-4 leukemia
NCI-H226 lung = system: NCI-H226 lung
NCI-H23 lung = system: NCI-H23 lung
NCI-H460 lung = system: NCI-H460 lung
NCI-H522 lung = system: NCI-H522 lung
NCI/ADR-RES ovarian = system: NCI/ADR-RES ovarian
OVCAR-4 ovarian = system: OVCAR-4 ovarian
OVCAR-5 ovarian = system: OVCAR-5 ovarian
OVCAR-8 ovarian = system: OVCAR-8 ovarian
PC-3 prostate = system: PC-3 prostate
RPMI-8226 leukemia = system: RPMI-8226 leukemia
RXF 393 renal = system: RXF 393 renal
SF-268 CNS = system: SF-268 CNS
SF-295 CNS = system: SF-295 CNS
SF-539 CNS = system: SF-539 CNS
SK-MEL-2 melanoma = system: SK-MEL-2 melanoma
SK-MEL-28 melanoma = system: SK-MEL-28 melanoma
SK-MEL-5 melanoma = system: SK-MEL-5 melanoma
SK-OV-3 ovarian = system: SK-OV-3 ovarian
SN12C renal = system: SN12C renal
SNB-19 CNS = system: SNB-19 CNS
SNB-75 CNS = system: SNB-75 CNS
SR leukemia = system: SR leukemia
SW-620 colon = system: SW-620 colon
T-47D breast = system: T-47D breast
TK-10 renal = system: TK-10 renal
U251 CNS = system: U251 CNS
UACC-62 melanoma = system: UACC-62 melanoma
UO-31 renal = system: UO-31 renal

Oc1ccc(-c2nnc(SCc3ccc(O)c4ncccc34)n2-c2ccccc2)cc1
GI50 (786-0 renal): 770 nM | TGI (786-0 renal): 11100 nM | GI50 (A498 renal): 570 nM | TGI (A498 renal): 5840 nM | GI50 (A549 NSCLC): 614 nM | TGI (A549 NSCLC): > 100000 nM | GI50 (ACHN renal): 365 nM | TGI (ACHN renal): > 100000 nM | GI50 (BT-549 breast): 606 nM | TGI (BT-549 breast): > 25800 nM | GI50 (CAKI-1 renal): 448 nM | TGI (CAKI-1 renal): > 100000 nM | GI50 (CCRF-CEM leukemia): 327 nM | TGI (CCRF-CEM leukemia): > 100000 nM | GI50 (COLO 205 colon): 3020 nM | TGI (COLO 205 colon): > 100000 nM | GI50 (DU-145 prostate): 438 nM | TGI (DU-145 prostate): > 100000 nM | GI50 (EKVX NSCLC): 596 nM | TGI (EKVX NSCLC): > 100000 nM | GI50 (HCC-2998 colon): 620 nM | TGI (HCC-2998 colon): > 63400 nM | GI50 (HCT-116 colon): 158 nM | TGI (HCT-116 colon): > 100000 nM | GI50 (HCT-15 colon): 164 nM | TGI (HCT-15 colon): > 100000 nM | GI50 (HL-60(TB) leukemia): 292 nM | TGI (HL-60(TB) leukemia): 2730 nM | GI50 (HOP-62 NSCLC): 521 nM | TGI (HOP-62 NSCLC): > 100000 nM | GI50 (HOP-92 NSCLC): 28.9 nM | TGI (HOP-92 NSCLC): 845 nM | GI50 (HS 578T breast): 533 nM | TGI (HS 578T breast): > 100000 nM | GI50 (HT29 colon): 3850 nM | TGI (HT29 colon): > 100000 nM | GI50 (IGROV1 ovarian): 471 nM | TGI (IGROV1 ovarian): > 88300 nM | GI50 (K-562 leukemia): 290 nM | TGI (K-562 leukemia): > 100000 nM | GI50 (KM12 colon): 372 nM | TGI (KM12 colon): > 100000 nM | GI50 (LOX IMVI melanoma): 377 nM | TGI (LOX IMVI melanoma): 6930 nM | GI50 (M14 melanoma): 284 nM | TGI (M14 melanoma): 1570 nM | GI50 (MALME-3M melanoma): 902 nM | TGI (MALME-3M melanoma): > 29100 nM | GI50 (MCF7 breast): 140 nM | TGI (MCF7 breast): > 100000 nM | GI50 (MDA-MB-231 breast): 458 nM | TGI (MDA-MB-231 breast): > 100000 nM | GI50 (MDA-MB-435): 380 nM | TGI (MDA-MB-435): > 100000 nM | GI50 (MOLT-4 leukemia): 394 nM | TGI (MOLT-4 leukemia): > 100000 nM | GI50 (NCI-H226 lung): 718 nM | TGI (NCI-H226 lung): > 85800 nM | GI50 (NCI-H23 lung): 482 nM | TGI (NCI-H23 lung): > 100000 nM | GI50 (NCI-H460 lung): 152 nM | TGI (NCI-H460 lung): 6280 nM | GI50 (NCI-H522 lung): 330 nM | TGI (NCI-H522 lung): 2850 nM | GI50 (NCI/ADR-RES ovarian): 207 nM | GI50 (OVCAR-4 ovarian): 566 nM | TGI (OVCAR-4 ovarian): > 100000 nM | GI50 (OVCAR-5 ovarian): 1320 nM | TGI (OVCAR-5 ovarian): > 100000 nM | GI50 (OVCAR-8 ovarian): 233 nM | TGI (OVCAR-8 ovarian): > 100000 nM | GI50 (PC-3 prostate): 433 nM | TGI (PC-3 prostate): > 100000 nM | GI50 (RPMI-8226 leukemia): 391 nM | TGI (RPMI-8226 leukemia): > 100000 nM | GI50 (RXF 393 renal): 881 nM | TGI (RXF 393 renal): > 100000 nM | GI50 (SF-268 CNS): 465 nM | TGI (SF-268 CNS): > 100000 nM | GI50 (SF-295 CNS): 387 nM | TGI (SF-295 CNS): > 100000 nM | GI50 (SF-539 CNS): 528 nM | TGI (SF-539 CNS): > 44300 nM | GI50 (SK-MEL-2 melanoma): 828 nM | TGI (SK-MEL-2 melanoma): > 36900 nM | GI50 (SK-MEL-28 melanoma): 621 nM | TGI (SK-MEL-28 melanoma): > 100000 nM | GI50 (SK-MEL-5 melanoma): 371 nM | TGI (SK-MEL-5 melanoma): 1840 nM | GI50 (SK-OV-3 ovarian): 496 nM | TGI (SK-OV-3 ovarian): > 25900 nM | GI50 (SN12C renal): 348 nM | TGI (SN12C renal): > 100000 nM | GI50 (SNB-19 CNS): 385 nM | TGI (SNB-19 CNS): > 100000 nM | GI50 (SNB-75 CNS): 1500 nM | TGI (SNB-75 CNS): > 81000 nM | GI50 (SR leukemia): 325 nM | TGI (SR leukemia): > 100000 nM | GI50 (SW-620 colon): 397 nM | TGI (SW-620 colon): > 100000 nM | GI50 (T-47D breast): 600 nM | TGI (T-47D breast): > 100000 nM | GI50 (TK-10 renal): 502 nM | TGI (TK-10 renal): > 100000 nM | GI50 (U251 CNS): 194 nM | TGI (U251 CNS): > 100000 nM | GI50 (UACC-62 melanoma): 462 nM | TGI (UACC-62 melanoma): 3980 nM | GI50 (UO-31 renal): 261 nM | TGI (UO-31 renal): 4260 nM
